Assays:
SARS-CoV-2 M^pro = SARS-CoV-2 M^pro (Severe acute respiratory syndrome coronavirus 2, UniProt P0DTD1); experiment: SARS-CoV-2 Mpro enzymatic assay; format: biochemical
[1] = Liver microsome stability, mouse; format: in vitro ADME; conditions: liver microsomes
[2] = Liver microsome stability, rat; format: in vitro ADME; conditions: liver microsomes
[3] = Liver microsome stability, human; format: in vitro ADME; conditions: liver microsomes
[4] = Hepatocytes stability, mouse; format: in vitro ADME
[5] = Hepatocytes stability, rat; format: in vitro ADME
[6] = Hepatocytes stability, human; format: in vitro ADME
Mouse PK = format: in vivo; conditions: iv 3 mg/kg
Rat PK = format: in vivo; conditions: iv 2 mg/kg
[7] = Predicted human clearance by simple allometric scaling; conditions: simple allometric scaling method
HCoV-OC43 = format: in vivo; conditions: intraperitoneal injection, 7 days, 6 neonatal mice per group
[8] = vehicle 40% PEG400 + 60 %saline

SMILES | Fold weaker in enzymatic potency relative to 2a (SARS-CoV-2 M^pro; relative to 2a) [fold] | CLint scaled [1] [mL/min/kg] | CLint scaled [2] [mL/min/kg] | CLint scaled [3] [mL/min/kg] | CLint scaled [4] [mL/min/kg] | CLint scaled [5] [mL/min/kg] | CLint scaled [6] [mL/min/kg] | CL (Mouse PK; vehicle saline) | CL (Rat PK; vehicle saline) | CL (Mouse PK; [8]) | Folds loss in enzymatic and cell potencies (SARS-CoV-2 M^pro; P3 cap modifications, enzymatic and cell potencies) | CL (Rat PK; [8]) | Predicted human clearance [7] | Mice survived at day 14 (HCoV-OC43; high dosing group) | Mice survived (HCoV-OC43; low dosing group)
N#C[C@H](C[C@@H]1CCNC1=O)NC(=O)[C@@H]1[C@H]2CCC[C@H]2CN1C(=O)[C@@H](NC(=O)C(F)(F)F)c1ccc(F)cc1 [3b] | 4 |  |  |  |  |  |  |  |  |  |  |  |  |  | 
N#C[C@H](C[C@@H]1CCNC1=O)NC(=O)[C@@H]1[C@H]2CCC[C@H]2CN1C(=O)[C@@H](NC(=O)C(F)(F)F)C1CCCCC1 [3a] |  | 215 | < 17.3 | 19 | 455 | 51 | < 17.8 | 92.2 mL min^−1 kg^−[1] | 62.7 mL min^−1 kg^−[1] |  |  |  |  |  | 
CC(C)(C)NC(=O)C(=O)[C@H](C[C@@H]1CCNC1=O)NC(=O)[C@@H]1[C@H]2CCC[C@H]2CN1C(=O)[C@@H](NC(=O)C(F)(F)F)C1CCCC1 [4c] |  |  |  |  |  |  |  |  |  | 5.06 mL min^−1 kg^−[1] |  |  |  |  | 
CC(=O)N[C@H](C(=O)N1C[C@@H]2CCC[C@@H]2[C@H]1C(=O)N[C@H](C#N)C[C@@H]1CCNC1=O)C1CCCCC1 [3c] |  |  |  |  |  |  |  |  |  |  | 3–10 folds |  |  |  | 
CC(C)(C)[C@H](NC(=O)C(F)(F)F)C(=O)N1C[C@H]2[C@@H]([C@H]1C(=O)N[C@H](C#N)C[C@@H]1CCNC1=O)C2(C)C [nirmatrelvir, reference compound] |  | 329 | < 17.3 | 29 | 169 | < 29.9 | < 17.8 | 30.2 mL min^−1 kg^−[1] | 42.0 mL min^−1 kg^−[1] |  |  |  |  |  | 
CC(C)(C)[C@H](NC(=O)C(F)(F)F)C(=O)N1C[C@@H]2CCC[C@@H]2[C@H]1C(=O)N[C@H](C#N)C[C@@H]1CCNC1=O [2a] |  | 262 | < 17.3 | 13 | 435 | 32 | < 17.8 | 79.3 mL min^−1 kg^−[1] | 75.4 mL min^−1 kg^−[1] |  |  |  |  |  | 
CC(C)(C)NC(=O)C(=O)[C@H](C[C@@H]1CCNC1=O)NC(=O)[C@@H]1[C@H]2CCC[C@H]2CN1C(=O)[C@@H](NC(=O)C(F)(F)F)C1CCCCC1 [4a] |  | 212 | 25 |  | 1020 | 42 | < 17.8 |  |  | 2.50 mL min^−1 kg^−[1] |  | 2.55 mL min^−1 kg^−[1] | about 2.9 ml/min/kg | 6/6 | four out of six
